# Literature values as cited in patent US7803755B2, “Molecules for the treatment and prevention of fungal diseases” (priority 2006, dated 2010).
# Where a name gives a salt, the structure may show the parent alone.
# What was measured:
# [1] = tested on: onychomycosis; conditions: after using ciclopirox lacquer
# [2] = tested on: Trichophyton rubrum, Trichophyton mentagrophytes, Trichophyton tonsurans, Epidermophyton floccosum, Microsporum canis, Microsporum audouini, and Microsporum …; conditions: wide spectrum of organisms
# [3] = tested on: Candida species, including Candida albicans
smiles,measurement,setting,value
Cc1cc(C2CCCCC2)n(O)c(=O)c1 [Ciclopirox],patients rating their onychomycosis as improved,[1],90%
"CN(C/C=C/c1ccccc1)Cc1cccc2ccccc12 [Naftifine hydrochloride, naftifine hydrochloride]",antifungal activity in vitro,[2],fungicidal activity
same,antifungal activity in vitro,[3],fungistatic activity
